# Data taken from US20050266577A1, “Ultrafiltration device for drug binding studies” (Millipore Corporation, priority 2002, published 2005).
# Read-outs that look alike come from different tables or passages of the source.
# Tests used:
# [1] = Non-specific binding, second control plate with ultrafiltrate diluent added; conditions: 10 nanomolar CE in phosphate buffered saline
# Description: Each membrane was tested in triplicate. Each Microcon® device was placed in the appropriately labeled retentate/filtrate vial. If the membrane to be tested needed to be pre-wetted before proceeding with this process, one needed to be sure that the membrane received a final rinse with PBS prior to testing. 200 µl of analyte solution was added to each Microcon® device and spun to dryness (20-30 minutes) in a microcentrifuge (14000-×g). The membranes were rinsed by adding 25 µl to each device and spun in the microcentrifuge (14000-×g) for 10 minutes.
# To determine the amount of non-specific binding to the membrane, the collar and gasket were removed and the membrane placed in a glass scintillation vial. Three ml of scintillation cocktail was added to each vial. A 20 µl aliquot of the original solution was added to 3 ml of scintillation cocktail for reference. Radioactivity (in DPM) was determined by liquid scintillation counting using 1 minute counting periods and a stored quench curve as described by the equipment manufacturer.
# The ratio of radioactivity found on the membrane compared to the total amount of radioactivity added was reported as a percentage and was used to assess CE NSB of the membrane being tested.
# [2] = 10 nanomolar CE concentration in phosphate buffered saline
# Excerpt: Microcon® Device Preparation:
# The membrane to be tested was cut with the appropriate die cutter for the diameter of the device. The assembly consisted of placing the membrane on the support followed by addition of a gasket.
# The collar is then placed on top of the assembly and sealed at a pressure varying from 65 to 100 psi.
# Radioactive Analyte Preparation:
# In order to prepare the analyte we used the following equation: [Concentration of Analyte]×[Volume needed for the experiment in microliter]×[Specific activity (Ci/mol)]×[1/Concentration (Ci/µl)].
# The required volume of analyte was added to an appropriate volume of PBS. 200 µl of this preparation was used per sample.
# Each membrane was tested in triplicate.
# A first control plate, a Multiscreen® 96 well plate containing a heat sealed UPE (ultrahigh molecular weight polyethylene) composite cellulosic UF membrane, was used in a binding study.
# [3] = No support, table after second control plate (ultrafiltrate diluent)
# [4] = Support: UPE composite, second control plate, ultrafiltrate diluent added
Compound,"% Non Specific Binding [1, 3]","% Non Specific Binding [1, 4]",% Non Specific Binding ([2]; No support),% Non Specific Binding ([2]; Support: Non-woven 1),% Non Specific Binding ([2]; Support: Non-woven 2),% Non Specific Binding ([2]; Support: UPE composite)
OC[C@@H](O)[C@@H](O)[C@H](O)[C@H](O)CO [mannitol],1%,2%,2%,2%,1%,1%
CC(C)NCC(O)COc1cccc2ccccc12 (centres unmarked) [proprananol],–,–,4%,0%,2%,61%
C[C@H]1O[C@@H](O[C@H]2[C@@H](O)C[C@H](O[C@H]3[C@@H](O)C[C@H](O[C@H]4CC[C@@]5(C)[C@H](CC[C@@H]6[C@@H]5C[C@@H](O)[C@]5(C)[C@@H](C7=CC(=O)OC7)CC[C@]65O)C4)O[C@@H]3C)O[C@@H]2C)C[C@H](O)[C@@H]1O [digoxin],3%,92%,3%,3%,2%,47%
C[C@]12CC[C@H]3[C@@H](CCC4=CC(=O)CC[C@@]43C)[C@@H]1CC[C@@H]2O [testosterone],3%,80%,4%,1%,1%,101%
CN(Cc1cnc2nc(N)nc(N)c2n1)c1ccc(C(=O)N[C@@H](CCC(=O)O)C(=O)O)cc1 [methotrexate],–,–,4%,0%,3%,16%
